Results from patent publication US20060135588A1, “Preventive and/or therapeutic drugs for inflammatory intestinal diseases” (priority 2002, published 2006).

Columns and labels:
Assay type in all cases: in vivo, Sprague-Dawley male rats
[1] = tested on: Dextran sulfate sodium (DSS)-induced colitis; experiment: Histological evaluation of DSS-induced colitis (damage score); conditions: 8 days DSS; for damage score vs control group: FIG. 3(A)
Protocol: (§1) The edaravone as synthesized above was dissolved in a small amount of 1 N sodium hydroxide solution. Thereafter, the pH thereof was adjusted to be around neutral.
(§2) 6-week-old Sprague-Dawley male rats (Clea Japan, Inc.) were used. According to the method described in the previous report (Araki Y. et al., Scand J Gastroentero, 35, 1060-1067, 2000), colitis was induced to develop in the rats as follows. That is to say, 4% (w/w) dextran sulfate sodium (DSS; molecular weight: 5,000; Wako Pure Chemical Industries, Ltd., Osaka) was added to a powder diet MF (Oriental Yeast Co., Ltd.). The rats were fed with the thus obtained mixed diet at an amount of 30 g/day/rat for 8 days. With regard to edaravone administration groups, from immediately after initiation of the administration of DSS, edaravone was subcutaneously injected into the back of each rat, at a dose of 1 mg/kg/day, 5 mg/kg/day, or 20 mg/kg/day, which was dividedly administered in the morning and evening. With regard to a control group, a normal saline solution was subcutaneously injected into the back of each rat in the same above manner.
The mucosa located at 5 mm from the anus side was fixed with a Carnoy's fluid for 3 hours, and was then embedded in paraffin. Thereafter, a tissue fragment with a thickness of 5 μm was prepared, followed by hematoxylin-eosin staining. Scoring of colitis was conducted in accordance with the method described in the previous report (Araki Y. et al., Scand J Gastroentero, 35, 1060-1067, 2000). Namely, the degree and size of each of the following 3 items: (i) the absence of the mucosal epithelium, (ii) deformation of crypts, and (iii) the level of infiltration of inflammatory cells, are expressed in the following point system: 0: none; 1: slight and localized; 2: moderate and localized; 3: moderate and broad; and 4: severe and broad. The total points regarding the above 3 items were summed up, and the obtained value was defined as the histological colitis score (damage score) of a rat.
The results are shown as mean±SEM. The comparison between groups was carried out by Fisher's PLSD Test. […]

[2] = tested on: MDA and 4-HNE in the large intestinal mucosa; experiment: Concentrations of MDA and 4-HNE in large intestinal mucosa of rats with DSS-induced colitis; conditions: all groups: 1, 5 and 20 mg/kg/day s.c., 8 days DSS; no significant differences among the administration groups; FIG. 4(A)
Protocol: as §1
(§3) 6-week-old Sprague-Dawley male rats (Clea Japan, Inc.) were used. According to the method described in the previous report (Araki Y. et al., Scand J Gastroentero, 35, 1060-1067, 2000), colitis was induced to develop in the rats as follows. That is to say, 4% (w/w) dextran sulfate sodium (DSS; molecular weight: 5,000; Wako Pure Chemical Industries, Ltd., Osaka) was added to a powder diet MF (Oriental Yeast Co., Ltd.). The rats were fed with the thus obtained mixed diet at an amount of 30 g/day/rat for 8 days. […]
Hyperoxidation of lipids is an important mechanism regarding tissue injury. […] Accordingly, the concentrations of MDA and 4-HNE in the large intestinal mucosa were measured, and the obtained values were used as indicators of the state of reactive oxygen species (ROS) in tissues (Matsumura N. et al., Pancreas, 22, 53-7, 2001). That is, the large intestinal mucosa was homogenized with 9 times its volume of 50 mmol/l Tris-buffer (pH 8.0) containing 0.5% Triton X-100, and the concentrations were measured using an assay kit, Lipid peroxidation assay kit (Calbiochem, La Jolla, Calif., U.S.A.). […]

[3] = tested on: Dextran sulfate sodium (DSS)-induced colitis; experiment: Evaluation of DSS-induced colitis by naked eyes (wet weight of large intestine, injured mucosa area); conditions: all groups: 1, 5 and 20 mg/kg/day s.c., 8 days of 4% DSS diet
Protocol: as §1, §3
8 days later, the rats were subjected to anatomy. […] Thereafter, the large intestine (the colon and the rectum) was excised, and the wet weight of the organ was measured. The degree of the injured large intestinal mucosa was evaluated by naked eyes according to the method described in the previous report (Araki Y. et al., Scand J Gastroentero, 35, 1060-1067, 2000). That is, the areas of portions, on which a change in the color tone of the mucosa (redness), an attachment of blood clots, a collapse of mucosal wall area, edema, or erosion were observed, were measured. […]

[4] = tested on: interleukin-6 in the plasma; experiment: Concentration of interleukin-6 in plasma of rats with DSS-induced colitis (ELISA); conditions: 8 days DSS, FIG. 4(B)
Protocol: as §1
as §2, with “With regard to a control group, a normal saline solution was subcutaneously injected into the back of each rat in the same above manner.” left out
The concentration of interleukin-6 in the plasma was measured as an indicator of a systemic inflammatory reaction. That is to say, the blood was centrifuged at 10,000 rpm, and then the concentration of interleukin-6 in the plasma was measured by the ELISA method (Rat IL-6 ELISA KIT, BioSource Europe, S.A., Belgium). […]

[5] = tested on: myeloperoxidase activity in the large intestinal mucosa; experiment: Myeloperoxidase activity in large intestinal mucosa of rats with DSS-induced colitis; conditions: 8 days DSS, FIG. 3(B)
Protocol: as §1, §3
Myeloperoxidase activity used as an indicator of inflammation in the large intestinal mucosa was measured by the method described in the previous report (Araki Y. et al., Clin Exp Immunol, 119, 264-269, 2000). […] The activity of the obtained homogenate was observed as a change in the absorbance at 460 nm obtained as a result of the reaction of H2O2 with o-dianisidin.
Hyperoxidation of lipids is an important mechanism regarding tissue injury. […] Accordingly, the concentrations of MDA and 4-HNE in the large intestinal mucosa were measured, and the obtained values were used as indicators of the state of reactive oxygen species (ROS) in tissues (Matsumura N. et al., Pancreas, 22, 53-7, 2001). […]

[6] = all groups: 1, 5 and 20 mg/kg/day s.c.

## CC1=NN(c2ccccc2)C(=O)C1 [edaravone, 3-methyl-1-phenyl-2-pyrazolin-5-one]
[1]; 20 mg/kg/day s.c.
  damage score vs control group: significantly lower
[1]; 1, 5 and 20 mg/kg/day s.c., hematoxylin-eosin, FIG. 2
  edema formed in the submucosal layer and infiltration of inflammatory cells (large intestine tissue image): suppressed
[1]; [6]
  damage score vs control group: lower
[2]
  concentrations of MDA and 4-HNE in the large intestinal mucosa vs control group: lower
[3]; FIG. 1(B)
  injured mucosa area vs control group: significantly smaller
[3]; divided morning and evening, FIG. 1(A)
  wet weight of the large intestine vs control group: significantly lower
[4]; 20 mg/kg/day s.c.
  concentration of IL-6 in the plasma vs control group: significantly lower
[4]; [6]
  concentration of IL-6 in the plasma vs control group: lower
[5]; 20 mg/kg/day s.c.
  myeloperoxidase activity in the large intestinal mucosa vs control group: significantly lower
[5]; [6]
  myeloperoxidase activity in the large intestinal mucosa vs control group: lower
